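Cells were grown in 96-well plates and exposed to each compound for 48 hours at five concentrations; endpoints were interpolated linearly between bracketing concentrations, or set to the highest concentration if not reached. GI50 is the concentration that inhibits growth by half.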 The source made the active and inactive calls. Cut-off read from the data, not from the text of the source: active = GI50 up to about 1.1 µM and inactive = higher.
What was measured:
Test in all cases: growth of human tumour cells (NCI), 48 h
HL-60 = tested on: HL-60
SW-620 = tested on: SW-620
SR = tested on: SR
OVCAR-8 = tested on: OVCAR-8
NCI-H23 = tested on: NCI-H23
SK-MEL-28 = tested on: SK-MEL-28
KM12 = tested on: KM12
HCT-116 = tested on: HCT-116
OVCAR-4 = tested on: OVCAR-4
ACHN = tested on: ACHN
SK-MEL-5 = tested on: SK-MEL-5
OVCAR-5 = tested on: OVCAR-5
K562 = tested on: K562
NCI-H460 = tested on: NCI-H460
MOLT-4 = tested on: MOLT-4
UACC-257 = tested on: UACC-257
IGROV-1 = tested on: IGROV-1
SK-MEL-2 = tested on: SK-MEL-2
LOX IMVI = tested on: LOX IMVI
M14 = tested on: M14

Compound | GI50 (HL-60) | GI50 (SW-620) | GI50 (SR) | GI50 (OVCAR-8) | GI50 (NCI-H23) | GI50 (SK-MEL-28) | GI50 (KM12) | GI50 (HCT-116) | GI50 (OVCAR-4) | GI50 (ACHN) | GI50 (SK-MEL-5) | GI50 (OVCAR-5) | GI50 (K562) | GI50 (NCI-H460) | GI50 (MOLT-4) | GI50 (UACC-257) | GI50 (IGROV-1) | GI50 (SK-MEL-2) | GI50 (LOX IMVI) | GI50 (M14)
O=C1Nc2ccccc2C1Cc1ccccc1 (centres undefined) | > 100 µM (inactive) | > 100 µM (inactive) | > 100 µM (inactive) | > 100 µM (inactive) | > 100 µM (inactive) | > 100 µM (inactive) | > 100 µM (inactive) | > 100 µM (inactive) | > 100 µM (inactive) | > 100 µM (inactive) | 43.6 µM (inactive) | > 100 µM (inactive) | > 100 µM (inactive) | > 100 µM (inactive) | > 100 µM (inactive) | > 100 µM (inactive) | > 100 µM (inactive) | > 100 µM (inactive) | > 100 µM (inactive) | > 100 µM (inactive)
CC12C/C(=C\c3ccccc3)C(=O)C3C1CCCC32 | 21.5 µM (inactive) | > 100 µM (inactive) | 36.8 µM (inactive) | > 100 µM (inactive) | > 100 µM (inactive) | > 100 µM (inactive) | 55.1 µM (inactive) | 67.8 µM (inactive) | 66.4 µM (inactive) | > 100 µM (inactive) | 46 µM (inactive) | > 100 µM (inactive) | 38.6 µM (inactive) | > 100 µM (inactive) | 21.5 µM (inactive) | 53 µM (inactive) | > 100 µM (inactive) | > 100 µM (inactive) | 72.8 µM (inactive) | > 100 µM (inactive)
CC(C)(C)c1ccc2c(c1)CNCCNCc1cc(C(C)(C)C)ccc1OCC1(CO2)COc2ccc(C(C)(C)C)cc2CNCCNCc2cc(C(C)(C)C)ccc2OC1 | 0.179 µM (active) | 0.501 µM (active) | 0.129 µM (active) | 0.935 µM (active) | 0.948 µM (active) | 1.71 µM (inactive) | 0.388 µM (active) | 0.288 µM (active) | 1.53 µM (inactive) | 1.6 µM (inactive) | 1.23 µM (inactive) | 1.72 µM (inactive) | 0.213 µM (active) | 0.276 µM (active) | 0.225 µM (active) | 1.54 µM (inactive) | 1.28 µM (inactive) | 1.51 µM (inactive) | 0.243 µM (active) | 0.467 µM (active)
O=C(CC1(O)C(=O)Nc2c(Cl)cc(Cl)cc21)c1cccc2ccccc12 (centres undefined) | 10.5 µM (inactive) | 16 µM (inactive) | 16.9 µM (inactive) | 18.1 µM (inactive) | 16.9 µM (inactive) | 18.7 µM (inactive) | 16 µM (inactive) | 15.2 µM (inactive) | 12.4 µM (inactive) | 17.1 µM (inactive) | 15.2 µM (inactive) | 22.4 µM (inactive) | 16.6 µM (inactive) | 16.6 µM (inactive) | 20 µM (inactive) | 15.8 µM (inactive) | 18.6 µM (inactive) | 17.7 µM (inactive) | 17.7 µM (inactive) | 16.7 µM (inactive)
COc1ncc(C=C(C#N)C#N)c(OC)n1 | 16.7 µM (inactive) | 26.2 µM (inactive) | 15.3 µM (inactive) | 24.2 µM (inactive) | 31.3 µM (inactive) | 44.8 µM (inactive) | 50 µM (inactive) | 26.1 µM (inactive) | 48.9 µM (inactive) | 48.5 µM (inactive) | 29.3 µM (inactive) | 86.7 µM (inactive) | 38.6 µM (inactive) | 41 µM (inactive) | 33.3 µM (inactive) | 22.1 µM (inactive) | 59.3 µM (inactive) | 32.3 µM (inactive) | 30.2 µM (inactive) | 18.7 µM (inactive)
C/C(=N\NC(=S)N1CCN(c2ccccn2)CC1)c1ncccn1 | 0.00752 µM (active) | 0.196 µM (active) | 0.0863 µM (active) | 0.0289 µM (active) | < 0.0288 µM (active) | 0.417 µM (active) | 0.254 µM (active) | 0.00395 µM (active) | 0.205 µM (active) | 0.0693 µM (active) | 0.109 µM (active) | 0.0303 µM (active) | 0.00711 µM (active) | 0.0726 µM (active) | 0.0116 µM (active) | 0.0165 µM (active) | 0.00275 µM (active) | 0.31 µM (active) | 0.0986 µM (active) | 0.0515 µM (active)
COc1c(C)c(OC)c2c(c1O)[C@@H]1[C@@H]3Cc4c(OC)c(C)c(OC)c(O)c4[C@H](CNC(=O)c4ccc5ccccc5n4)N3[C@@H](C#N)[C@H](C2)N1C | 0.000363 µM (active) | 0.00033 µM (active) | 0.000105 µM (active) | 0.00181 µM (active) | 0.000459 µM (active) | 0.00251 µM (active) | 0.000371 µM (active) | 0.000491 µM (active) | 0.00217 µM (active) | 0.00199 µM (active) | 0.000495 µM (active) | 0.000726 µM (active) | 0.000537 µM (active) | 0.00224 µM (active) | 0.00016 µM (active) | 0.00206 µM (active) | 0.000147 µM (active) | 0.000296 µM (active) | 0.00026 µM (active) | 0.000659 µM (active)
O=C1CCCC/C1=C\c1ccc(Br)cc1 | 2.4 µM (inactive) | > 100 µM (inactive) | 4.2 µM (inactive) | 15.7 µM (inactive) | 16.2 µM (inactive) | 13.7 µM (inactive) | 2.42 µM (inactive) | 17.3 µM (inactive) | 22 µM (inactive) | 2.75 µM (inactive) | 22.7 µM (inactive) | > 10 µM (inactive) | 4.33 µM (inactive) | 35.5 µM (inactive) | 2.14 µM (inactive) | 26.8 µM (inactive) | 19.7 µM (inactive) | 22.6 µM (inactive) | 39.6 µM (inactive) | 12.4 µM (inactive)
CN1CCCN2CCN(C)CCN(CC1)CC2 | > 100 µM (inactive) | > 100 µM (inactive) | > 100 µM (inactive) | > 100 µM (inactive) | > 100 µM (inactive) | > 100 µM (inactive) | > 100 µM (inactive) | > 100 µM (inactive) | > 100 µM (inactive) | > 100 µM (inactive) | > 100 µM (inactive) | > 100 µM (inactive) | > 100 µM (inactive) | > 100 µM (inactive) | > 100 µM (inactive) | > 100 µM (inactive) | > 100 µM (inactive) | > 100 µM (inactive) | > 100 µM (inactive) | > 100 µM (inactive)
O=C1C=C(OCCCCl)C(=O)c2c(O)ccc(O)c21 | 0.792 µM (active) | 0.277 µM (active) | 0.871 µM (active) | 2.07 µM (inactive) | 0.237 µM (active) | 0.843 µM (active) | 1.78 µM (inactive) | 0.459 µM (active) | 1.25 µM (inactive) | 1.59 µM (inactive) | 0.163 µM (active) | 1.43 µM (inactive) | 1.26 µM (inactive) | 1.21 µM (inactive) | 2.11 µM (inactive) | 0.176 µM (active) | 1.8 µM (inactive) | 1.02 µM (active) | 0.256 µM (active) | 0.188 µM (active)
Cn1c(=O)c2ccc(-c3ccc(Br)cc3)nc2n(C)c1=O | > 100 µM (inactive) | > 100 µM (inactive) | > 100 µM (inactive) | > 100 µM (inactive) | 51.2 µM (inactive) | > 100 µM (inactive) | > 100 µM (inactive) | 68.9 µM (inactive) | > 100 µM (inactive) |  | > 100 µM (inactive) | > 100 µM (inactive) | > 100 µM (inactive) | > 100 µM (inactive) | > 100 µM (inactive) | > 100 µM (inactive) | > 100 µM (inactive) | > 100 µM (inactive) | > 100 µM (inactive) | > 100 µM (inactive)
Cc1nn(C(=O)c2ccc(Cl)cc2)c2c1C(c1cccc([N+](=O)[O-])c1)SC(=N)N2 (centres undefined) | > 10 µM (inactive) | > 10 µM (inactive) | > 10 µM (inactive) | > 10 µM (inactive) | > 10 µM (inactive) | > 10 µM (inactive) | > 10 µM (inactive) | > 10 µM (inactive) | > 10 µM (inactive) | > 10 µM (inactive) | > 10 µM (inactive) | > 10 µM (inactive) | > 10 µM (inactive) | > 10 µM (inactive) | > 10 µM (inactive) | > 10 µM (inactive) | > 10 µM (inactive) | > 10 µM (inactive) | > 10 µM (inactive) | > 10 µM (inactive)
COc1nc(N)nc2c1ncn2C1CC(O)C(CO)O1 (centres undefined) | > 100 µM (inactive) | > 100 µM (inactive) | > 100 µM (inactive) | > 100 µM (inactive) | > 100 µM (inactive) | > 100 µM (inactive) | > 100 µM (inactive) | > 100 µM (inactive) | > 100 µM (inactive) | > 100 µM (inactive) | > 100 µM (inactive) | > 100 µM (inactive) | > 100 µM (inactive) | > 100 µM (inactive) | > 100 µM (inactive) | > 100 µM (inactive) | > 100 µM (inactive) | > 100 µM (inactive) | > 100 µM (inactive) | > 100 µM (inactive)
CCCCCCCCCCCCCCCCOP(=O)(O)Oc1ccc(/C=C\c2ccc(OP(=O)(O)OCCCCCCCCCCCCCCCC)cc2)cc1 | 26 µM (inactive) | > 100 µM (inactive) | 30 µM (inactive) | 12.2 µM (inactive) | 23.5 µM (inactive) | > 100 µM (inactive) | 56.2 µM (inactive) | 54 µM (inactive) | 62.5 µM (inactive) | 40.6 µM (inactive) | > 100 µM (inactive) | > 100 µM (inactive) | 36.1 µM (inactive) | 56.4 µM (inactive) | 59 µM (inactive) | > 100 µM (inactive) | 30.8 µM (inactive) | > 100 µM (inactive) | > 100 µM (inactive) | 45.6 µM (inactive)

— ChEMBL document CHEMBL1201862, “PubChem BioAssay data set” (2004)
